From patent US20130252935A1, “Monobactams” (PFIZER INC., priority 2010, published 2013)
≈ marks a conversion by molar mass, not a printed value.

Columns and labels:
Type in all cases: cell-based
[1] = system: Pseudomonas aeruginosa UC-12120; assay: minimum inhibitory concentration (MIC) testing according to CLSI guidelines, Pseudomonas aeruginosa; settings: UC-12120, wild-type, labeled as 1091-05, overnight incubation, lower of duplicate values; for MIC: Pseudomonas aeruginosa, UC12120, read-out: AB-MBT: Pseudomonas aeruginosa 1091-05: MIC (MstRcn)
Method in brief: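 Broth dilution MIC per CLSI guidelines against wild-type P. aeruginosa UC-12120 (1091-05), using 2-fold drug dilutions and overnight incubation with visual reading of lowest growth-inhibiting concentration. Tested in duplicate; lower value reported when within 2-fold, with control organisms and reference compounds for quality control.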

[2] = system: Klebsiella pneumoniae 1000-02; assay: minimum inhibitory concentration (MIC) testing according to CLSI guidelines, Klebsiella pneumoniae; settings: ciprofloxacin-resistant, ESBL-expressing clinical isolate 1000-02, overnight incubation, lower of duplicate values; for MIC: Klebsiella pneumoniae, read-out: AB-MBT: Klebsiella pneumoniae 1000-02: MIC (MstRcnt)
Method in brief: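 MIC by CLSI broth dilution with 2-fold concentration steps and overnight incubation; lowest concentration visibly inhibiting growth versus drug-free control. Ciprofloxacin-resistant, ESBL-expressing clinical isolate 1000-02. Run in duplicate, lower value reported when within 2-fold, with QC organisms and reference compounds per run.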

[3] = system: Acinetobacter baumannii/haemolyticus AB-3167; assay: minimum inhibitory concentration (MIC) testing according to CLSI guidelines, Acinetobacter; settings: multidrug-resistant clinical isolate AB-3167, overnight incubation, lower of duplicate values; for MIC: Acinetobacter baumannii, read-out: AB-MBT: Acinetobacter baumanii AB-3167: MIC (MstRcnt)
Method in brief: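 Broth dilution MIC per CLSI M7-A8/M100-S20 against multidrug-resistant clinical isolate AB-3167, using 2-fold drug dilutions and overnight incubation; MIC is the lowest concentration without visible growth. Duplicates within 2-fold reported as the lower value, with control strains and reference compounds in range.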

Row | Compound | MIC [1] | MIC [2] | AB-MBT: Pseudomonas aeruginosa 1091-05: MIC (MstRcn) [1] | AB-MBT: Klebsiella pneumoniae 1000-02: MIC (MstRcnt) [2] | MIC [3] | AB-MBT: Acinetobacter baumanii AB-3167: MIC (MstRcnt) [3]
1 | CC(C)(O/N=C(\C(=O)N[C@@H]1C(=O)N(S(=O)(=O)O)[C@@H]1CNC(=O)CNC(=O)NCc1cc(=O)c(O)cn1O)c1csc(N)n1)C(=O)O [Example 53, 2-({[(1Z)-1-(2-amino-1,3-thiazol-4-yl)-2-{[(2R,3S)-2-{[(N-{[(1,5-dihydroxy-4-oxo-1,4-dihydropyridin-2-yl)methyl]carbamoyl}glycyl)amino]methyl}-4-oxo-1-sulfoazetidin-3-yl]amino}-2-oxoethylidene]amino}oxy)-2-methylpropanoic acid] | 0.25 µg/mL (≈ 0.363 µM) | 1 µg/mL (≈ 1.45 µM) |  |  | 0.25 µg/mL (≈ 0.363 µM) | 
2 | C[C@H](NC(=O)c1cc(=O)c(O)cn1O)C(=O)NC[C@@H]1[C@H](NC(=O)/C(=N\OC(C)(C)C(=O)O)c2csc(N)n2)C(=O)N1S(=O)(=O)O [Example 54, 2-({[(1Z)-1-(2-amino-1,3-thiazol-4-yl)-2-({(2R,3S)-2-[({N-[(1,5-dihydroxy-4-oxo-1,4-dihydropyridin-2-yl)carbonyl]-L-alanyl}amino)methyl]-4-oxo-1-sulfoazetidin-3-yl}amino)-2-oxoethylidene]amino}oxy)-2-methylpropanoic acid] | 0.25 µg/mL (≈ 0.371 µM) | 1 µg/mL (≈ 1.48 µM) |  |  | 0.25 µg/mL (≈ 0.371 µM) | 
3 | C[C@H](NC(=O)NCc1cc(=O)c(O)cn1O)C(=O)NC[C@@H]1[C@H](NC(=O)/C(=N\OC(C)(C)C(=O)O)c2csc(N)n2)C(=O)N1S(=O)(=O)O [Example 55, 2-({[(1Z)-1-(2-amino-1,3-thiazol-4-yl)-2-{[(2R,3S)-2-{[(N-{[(1,5-dihydroxy-4-oxo-1,4-dihydropyridin-2-yl)methyl]carbamoyl}-L-alanyl)amino]methyl}-4-oxo-1-sulfoazetidin-3-yl]amino}-2-oxoethylidene]amino}oxy)-2-methylpropanoic acid] | 0.25 µg/mL (≈ 0.355 µM) | 2 µg/mL (≈ 2.84 µM) |  |  | 0.5 µg/mL (≈ 0.711 µM) | 
4 | CC(C)(O/N=C(\C(=O)N[C@@H]1C(=O)N(S(=O)(=O)O)[C@@H]1CNC(=O)Cc1cccc(NC(=O)c2cc(=O)c(O)cn2O)c1)c1csc(N)n1)C(=O)O [Example 56, 2-({[(1Z)-1-(2-amino-1,3-thiazol-4-yl)-2-{[(2R,3S)-2-({[(3-{[(1,5-dihydroxy-4-oxo-1,4-dihydropyridin-2-yl)carbonyl]amino}phenyl)acetyl]amino}methyl)-4-oxo-1-sulfoazetidin-3-yl]amino}-2-oxoethylidene]amino}oxy)-2-methylpropanoic acid] | 0.5 µg/mL (≈ 0.679 µM) | 1 µg/mL (≈ 1.36 µM) |  |  | 1 µg/mL (≈ 1.36 µM) | 
5 | CC(C)(O/N=C(\C(=O)N[C@@H]1C(=O)N(S(=O)(=O)O)[C@@H]1CNC(=O)Nc1cc(=O)c(O)c[nH]1)c1csc(N)n1)C(=O)O [Example 57, 2-({[(1Z)-1-(2-amino-1,3-thiazol-4-yl)-2-{[(2R,3S)-2-({[(5-hydroxy-4-oxo-1,4-dihydropyridin-2-yl)carbamoyl]amino}methyl)-4-oxo-1-sulfoazetidin-3-yl]amino}-2-oxoethylidene]amino}oxy)-2-methylpropanoic acid] | 2 µg/mL (≈ 3.32 µM) | 4 µg/mL (≈ 6.64 µM) |  |  | 1 µg/mL (≈ 1.66 µM) | 
6 | Nc1nc(/C(=N/OC2(C(=O)O)CCC2)C(=O)N[C@@H]2C(=O)N(S(=O)(=O)O)[C@@H]2CNC(=O)c2cc(=O)c(O)cn2O)cs1 [Example 58, 1-({[(1Z)-1-(2-amino-1,3-thiazol-4-yl)-2-{[(2R,3S)-2-({[(1,5-dihydroxy-4-oxo-1,4-dihydropyridin-2-yl)carbonyl]amino}methyl)-4-oxo-1-sulfoazetidin-3-yl]amino}-2-oxoethylidene]amino}oxy)cyclobutanecarboxylic acid] | 0.25 µg/mL (≈ 0.406 µM) | 0.06 µg/mL (≈ 0.0975 µM) |  |  | 0.25 µg/mL (≈ 0.406 µM) | 
7 | Nc1nc(/C(=N/OC2(C(=O)O)CCC2)C(=O)N[C@@H]2C(=O)N(S(=O)(=O)O)[C@@H]2CNC(=O)c2cccc(S(=O)(=O)NCc3cc(=O)c(O)cn3O)c2)cs1 [Example 59] |  |  | 0.250 µg/mL | 0.250 µg/mL |  | 0.250 µg/mL
8 | Nc1nc(/C(=N/OC2(C(=O)O)CCC2)C(=O)N[C@@H]2C(=O)N(S(=O)(=O)O)[C@@H]2CNC(=O)CCC(=O)NCc2cc(=O)c(O)cn2O)cs1 [Example 60, 1-({[(1Z)-1-(2-amino-1,3-thiazol-4-yl)-2-{[(2R,3S)-2-{[(4-{[(1,5-dihydroxy-4-oxo-1,4-dihydropyridin-2-yl)methyl]amino}-4-oxobutanoyl)amino]methyl}-4-oxo-1-sulfoazetidin-3-yl]amino}-2-oxoethylidene]amino}oxy)cyclobutanecarboxylic acid] | 0.125 µg/mL (≈ 0.178 µM) | 0.5 µg/mL (≈ 0.714 µM) |  |  | 0.25 µg/mL (≈ 0.357 µM) | 
9 | Nc1nc(/C(=N/OC2(C(=O)O)CCC2)C(=O)N[C@@H]2C(=O)N(S(=O)(=O)O)[C@@H]2CNC(=O)c2ccc(CNC(=O)c3cc(O)c(O)cn3)cc2)cs1 [Example 61, 1-({[(1Z)-1-(2-amino-1,3-thiazol-4-yl)-2-{[(2R,3S)-2-({[4-({[(4,5-dihydroxypyridin-2-yl)carbonyl]amino}methyl)benzoyl]amino}methyl)-4-oxo-1-sulfoazetidin-3-yl]amino}-2-oxoethylidene]amino}oxy)cyclobutanecarboxylic acid] | 32 µg/mL (≈ 43.7 µM) | 2 µg/mL (≈ 2.73 µM) |  |  | 1 µg/mL (≈ 1.36 µM) | 

More lines, main results first:

Row | MIC [1] | MIC [2] | AB-MBT: Pseudomonas aeruginosa 1091-05: MIC (MstRcn) [1] | AB-MBT: Klebsiella pneumoniae 1000-02: MIC (MstRcnt) [2] | Compound | MIC [3] | AB-MBT: Acinetobacter baumanii AB-3167: MIC (MstRcnt) [3]
10 | 2 µg/mL (≈ 2.67 µM) | 1 µg/mL (≈ 1.34 µM) |  |  | Nc1nc(/C(=N/OC2(C(=O)O)CCC2)C(=O)N[C@@H]2C(=O)N(S(=O)(=O)O)[C@@H]2CNC(=O)c2ccc(CNC(=O)c3cc(=O)c(O)cn3O)cc2)cs1 [Example 62, 1-({[(1Z)-1-(2-amino-1,3-thiazol-4-yl)-2-{[(2R,3S)-2-({[4-({[(1,5-dihydroxy-4-oxo-1,4-dihydropyridin-2-yl)carbonyl]amino}methyl)benzoyl]amino}methyl)-4-oxo-1-sulfoazetidin-3-yl]amino}-2-oxoethylidene]amino}oxy)cyclobutanecarboxylic acid] | 0.5 µg/mL (≈ 0.668 µM) | 
11 | 0.25 µg/mL (≈ 0.374 µM) | 1 µg/mL (≈ 1.5 µM) |  |  | N#C/N=C(\NCc1cc(=O)c(O)cn1O)NC[C@@H]1[C@H](NC(=O)/C(=N\OC2(C(=O)O)CCC2)c2csc(N)n2)C(=O)N1S(=O)(=O)O [Example 63, 1-({[(1Z)-1-(2-amino-1,3-thiazol-4-yl)-2-{[(2R,3S)-2-({[(Z)-(cyanoimino){[(1,5-dihydroxy-4-oxo-1,4-dihydropyridin-2-yl)methyl]amino}methyl]amino}methyl)-4-oxo-1-sulfoazetidin-3-yl]amino}-2-oxoethylidene]amino}oxy)cyclobutanecarboxylic acid] | 0.5 µg/mL (≈ 0.748 µM) | 
12 | 1 µg/mL (≈ 1.34 µM) | 0.25 µg/mL (≈ 0.334 µM) |  |  | Nc1nc(/C(=N/OC2(C(=O)O)CCC2)C(=O)N[C@@H]2C(=O)N(S(=O)(=O)O)[C@@H]2CNC(=O)c2cccc(C(=O)NCc3cc(=O)c(O)cn3O)c2)cs1 [Example 64, 1-({[(1Z)-1-(2-amino-1,3-thiazol-4-yl)-2-{[(2R,3S)-2-{[(3-{[(1,5-dihydroxy-4-oxo-1,4-dihydropyridin-2-yl)methyl]carbamoyl}benzoyl)amino]methyl}-4-oxo-1-sulfoazetidin-3-yl]amino}-2-oxoethylidene]amino}oxy)cyclobutanecarboxylic acid] | 0.5 µg/mL (≈ 0.668 µM) | 
13 | 0.06 µg/mL (≈ 0.0892 µM) | 0.25 µg/mL (≈ 0.372 µM) |  |  | Nc1nc(/C(=N/OC2(C(=O)O)CCC2)C(=O)N[C@@H]2C(=O)N(S(=O)(=O)O)[C@@H]2CNC(=O)C(=O)NCc2cc(=O)c(O)cn2O)cs1 [Example 65, 1-({[(1Z)-1-(2-amino-1,3-thiazol-4-yl)-2-{[(2R,3S)-2-({[{[(1,5-dihydroxy-4-oxo-1,4-dihydropyridin-2-yl)methyl]amino}(oxo)acetyl]amino}methyl)-4-oxo-1-sulfoazetidin-3-yl]amino}-2-oxoethylidene]amino}oxy)cyclobutanecarboxylic acid] | 0.125 µg/mL (≈ 0.186 µM) | 
14 | 0.5 µg/mL (≈ 0.794 µM) | 0.125 µg/mL (≈ 0.199 µM) |  |  | Nc1nc(/C(=N/OC2(C(=O)O)CCCC2)C(=O)N[C@@H]2C(=O)N(S(=O)(=O)O)[C@@H]2CNC(=O)c2cc(=O)c(O)cn2O)cs1 [Example 66, 1-({[(1Z)-1-(2-amino-1,3-thiazol-4-yl)-2-{[(2R,3S)-2-({[(1,5-dihydroxy-4-oxo-1,4-dihydropyridin-2-yl)carbonyl]amino}methyl)-4-oxo-1-sulfoazetidin-3-yl]amino}-2-oxoethylidene]amino}oxy)cyclopentanecarboxylic acid] | 0.5 µg/mL (≈ 0.794 µM) | 
15 | 4 µg/mL (≈ 5.54 µM) | 4 µg/mL (≈ 5.54 µM) |  |  | CC(C)(O/N=C(\C(=O)N[C@@H]1C(=O)N(S(=O)(=O)O)[C@@H]1CNC(=O)c1cccc(NC(=O)c2cc(=O)c(O)cn2O)c1)c1csc(N)n1)C(=O)O [Example 67, 2-({[(1Z)-1-(2-amino-1,3-thiazol-4-yl)-2-{[(2R,3S)-2-{[(3-{[(1,5-dihydroxy-4-oxo-1,4-dihydropyridin-2-yl)carbonyl]amino}benzoyl)amino]methyl}-4-oxo-1-sulfoazetidin-3-yl]amino}-2-oxoethylidene]amino}oxy)-2-methylpropanoic acid] | 2 µg/mL (≈ 2.77 µM) | 
